Measured values as given in US20210085630A1, “PHARMACEUTICAL COMPOSITION AND USE THEREOF IN PREPARING DRUG FOR TREATING TUMOR MULTI-DRUG RESISTANCE” (SICHUAN JIUZHANG BIOLOGICAL SCIENCE AND TECHNOLOGY CO., LTD., priority 2018, published 2021).

Key:
[1] = test system: gemcitabine-resistant Lewis lung cancer; test: Tumor weight and inhibition rate, transplanted gemcitabine-resistant Lewis lung cancer; assay type: in vivo; conditions: gemcitabine-resistant Lewis lung cancer mice; test drug 30 mg/kg i.p. once a day 5 days, then gemcitabine 300 mg/kg every other day; positive drug gemcitabine 300 mg/kg
Protocol: Lewis lung cancer cell lines were induced by the increased gradient concentration of gemcitabine, and established by clone screening and cultured without drug before the experiment.
(§1) After the drug was removed from the drug-resistant cell lines, the cell concentration was adjusted to 1×10^7/ml with the culture medium. 1×10^7/ml of cells were subcutaneously injected into the right armpit of mice, 0.1 ml per mouse.
(§2) After the average diameter of tumor reached […], the mice were randomly divided into test drug group 1, test drug group 2, test drug group 3, test drug group 4, test drug group 5, test drug group 6, positive drug group, and negative group, respectively.
(§3) Test drug group: the test drug group was first intraperitoneally injected, once a day, 30 mg/kg/time, for 5 consecutive days; administration was stopped, and the positive drug was given by intraperitoneal injection on the next day; wherein the positive drug dacarbazine was administrated once every other day, 60 mg/kg/time; wherein the positive drug gemcitabine was given once every other day, 300 mg/kg/time.
(§4) Positive drug group: positive drug dacarbazine was given once every other day, 60 mg/kg/time; positive drug gemcitabine was given once every other day, 300 mg/kg/time.
(§5) Negative group: normal saline was intraperitoneally injected, once a day, for 15 consecutive days.
(§6) After completion of administration, the experiment was stopped, and the mice were killed by cervical dislocation and weighed. The tumor was stripped and weighed, to calculate the tumor inhibition rate.

[2] = test system: CD4+T and CD8+T lymphocytes; test: Number of CD4+T and CD8+T lymphocytes in transplanted tumor of multidrug-resistant Lewis lung cancer mice; assay type: in vivo; conditions: average of 6 high power fields
Protocol: (§7) The number of CD4+T and CD8+T lymphocytes was analyzed by immunofluorescence staining, and the average number of CD4+T and CD8+T cells infiltrated in 6 high power fields was counted.

[3] = test system: multi-drug resistant Lewis lung cancer; test: Tumor weight and inhibition rate, transplanted multi-drug resistant Lewis lung cancer; assay type: in vivo, mice; conditions: multi-drug resistant Lewis lung cancer mice; test drug 30 mg/kg i.p. 5 days, then gemcitabine 300 mg/kg or dacarbazine 60 mg/kg every other day
Protocol: Lewis lung cancer cell lines were induced by the increased gradient concentration of dacarbazine and gemcitabine, and established by clone screening, then cultured without drug before the experiment.
as §1, §2, §3, §4, §5, §6

[4] = test system: dacarbazine-resistant B16 melanoma; test: Tumor weight and inhibition rate, transplanted dacarbazine-resistant B16 melanoma; assay type: in vivo; conditions: dacarbazine-resistant B16 melanoma mice; test drug 30 mg/kg i.p. once a day 5 days, then dacarbazine 60 mg/kg every other day; positive drug dacarbazine 60 mg/kg
Protocol: B16 melanoma cell lines were induced by the increased gradient concentration of dacarbazine, and established by clone screening and cultured without drug before the experiment.
as §1, §2, §3, §4, §5, §6

[5] = test system: CD4+T and CD8+T lymphocytes; test: Number of CD4+T and CD8+T cells in Opdivo-resistant B16 melanoma mice; assay type: in vivo; conditions: drug-resistant (Opdivo) B16 melanoma mice, average of 6 high power fields
Protocol: as §7

[6] = test system: CD4+T and CD8+T lymphocytes; test: Number of CD4+T and CD8+T cells (immunofluorescence), drug-resistant B16 melanoma transplanted tumor; assay type: in vivo; conditions: transplanted tumor of drug-resistant B16 melanoma in mice, average of 6 high power fields
Protocol: as §7

| Structure (SMILES) | Tumor inhibitory rate (%) [1] | Tumor weight (g) [1] | CD4 + T cells (number) [2] | CD8 + T cells (number) [2] | Tumor weight [3] | Tumor-inhibition rate (%) [3] | Tumor inhibition rate (%) [4] | Tumor weight (g) [4] | CD4 + T cells (number) [5] | CD8 + T cells (number) [5] | CD4 + T cells (number) [6] | CD8 + T cells (number) [6] | Tumor weight [4] |
| --- | --- | --- | --- | --- | --- | --- | --- | --- | --- | --- | --- | --- | --- |
| O=C(/C=C/c1ccc(O)c(O)c1)O[C@@H]1C[C@](O)(C(=O)O)C[C@@H](O)[C@H]1O [Chlorogenic acid, chlorogenic acid] | 10.48% | 2.05 ± 0.79 ^ g | 79.24 ± 4.06 | 126.52 ± 11.85 | 1.92 ± 0.69 g | 18.64% | 19.32% | 2.13 ± 0.52*Δ g | 74.63 ± 6.35 | 89.42 ± 2.52 | 69.43 ± 4.72 | 88.62 ± 5.38 | – |
| O=C(/C=C/c1ccc(O)cc1)O[C@@H]1C[C@](O)(C(=O)O)C[C@@H](O)[C@H]1O [Coumaroylquinic acid, coumaroylquinic acid] | 5.68% | 2.16 ± 0.41 ^ g | 79.11 ± 5.36 | 122.08 ± 14.36 | 2.15 ± 0.72 g | 8.90% | 15.91% | – | 75.09 ± 5.23 | 88.26 ± 5.36 | 62.83 ± 7.51 | 91.53 ± 3.54 | 2.22 ± 0.26 g |
